Reference: ChEMBL document CHEMBL1201862, “PubChem BioAssay data set” (2004)
Activity calls are given as the source filed them.

How the values were obtained:
Trypsin = Trypsin (Sus scrofa, UniProt P00761); test: porcine trypsin inhibitors, dose response, selectivity assay for Rce1 protease inhibitor project, biochemical, quenched peptide fluorescence, cherry-pick (AID 488789)
CAAX prenyl protease 2 = CAAX prenyl protease 2 (Homo sapiens, UniProt Q9Y256); test: human Rce1 protease inhibitors, dose response, biochemical, yeast membranes, quenched-peptide fluorescence, cherry-pick (AID 588849)
Chain of CAAX prenyl protease 2 (Q9Y256 whole entry): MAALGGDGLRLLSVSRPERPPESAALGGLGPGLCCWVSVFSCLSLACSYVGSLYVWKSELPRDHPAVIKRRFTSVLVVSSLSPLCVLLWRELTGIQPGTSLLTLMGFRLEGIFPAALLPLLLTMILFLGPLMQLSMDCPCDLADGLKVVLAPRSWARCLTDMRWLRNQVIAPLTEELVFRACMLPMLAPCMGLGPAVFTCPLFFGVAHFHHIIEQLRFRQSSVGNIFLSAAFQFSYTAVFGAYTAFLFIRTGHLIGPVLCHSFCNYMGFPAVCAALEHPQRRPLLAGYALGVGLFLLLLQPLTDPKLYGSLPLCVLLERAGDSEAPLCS

[1] = target: UDP-galactopyranose mutase (Mycobacterium tuberculosis, UniProt P9WIQ1); test: Inhibitors of Mycobacterium tuberculosis UDP-galactopyranose mutase (UGM) enzyme Measured in Biochemical System Using Plate Reader - 2105-02_Inhibitor_Dose_CherryPick_Activity. [Related pubchem assays (depositor defined):AID504439]
Chain of UDP-galactopyranose mutase (P9WIQ1 whole entry): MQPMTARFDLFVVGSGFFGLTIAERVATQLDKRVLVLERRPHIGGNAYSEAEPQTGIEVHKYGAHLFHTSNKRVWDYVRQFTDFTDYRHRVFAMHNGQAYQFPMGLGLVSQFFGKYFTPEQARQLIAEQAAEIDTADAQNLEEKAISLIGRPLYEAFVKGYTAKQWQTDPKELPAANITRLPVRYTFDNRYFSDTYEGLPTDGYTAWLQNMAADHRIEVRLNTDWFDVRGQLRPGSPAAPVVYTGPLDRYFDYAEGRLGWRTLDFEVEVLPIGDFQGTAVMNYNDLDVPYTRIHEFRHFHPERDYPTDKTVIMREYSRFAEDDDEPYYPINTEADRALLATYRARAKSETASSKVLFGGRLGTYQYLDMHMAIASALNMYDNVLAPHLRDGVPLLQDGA

[2] = target: Beta-adrenergic receptor kinase 1 (Homo sapiens, UniProt P25098); test: aptamer displacement from bead-bound GRK2 – biochemical, cherry pick 1, bead flow cytometry, dose response (AID 504500)
[3] = target: T1, Apoptotic protease-activating factor 1 (Homo sapiens, UniProt O14727); test: activation of Apaf-1 mediated apoptosis – fluorescent, uHTS hits, dose response (AID 588554); type: functional
T1 sequence (O14727 whole entry): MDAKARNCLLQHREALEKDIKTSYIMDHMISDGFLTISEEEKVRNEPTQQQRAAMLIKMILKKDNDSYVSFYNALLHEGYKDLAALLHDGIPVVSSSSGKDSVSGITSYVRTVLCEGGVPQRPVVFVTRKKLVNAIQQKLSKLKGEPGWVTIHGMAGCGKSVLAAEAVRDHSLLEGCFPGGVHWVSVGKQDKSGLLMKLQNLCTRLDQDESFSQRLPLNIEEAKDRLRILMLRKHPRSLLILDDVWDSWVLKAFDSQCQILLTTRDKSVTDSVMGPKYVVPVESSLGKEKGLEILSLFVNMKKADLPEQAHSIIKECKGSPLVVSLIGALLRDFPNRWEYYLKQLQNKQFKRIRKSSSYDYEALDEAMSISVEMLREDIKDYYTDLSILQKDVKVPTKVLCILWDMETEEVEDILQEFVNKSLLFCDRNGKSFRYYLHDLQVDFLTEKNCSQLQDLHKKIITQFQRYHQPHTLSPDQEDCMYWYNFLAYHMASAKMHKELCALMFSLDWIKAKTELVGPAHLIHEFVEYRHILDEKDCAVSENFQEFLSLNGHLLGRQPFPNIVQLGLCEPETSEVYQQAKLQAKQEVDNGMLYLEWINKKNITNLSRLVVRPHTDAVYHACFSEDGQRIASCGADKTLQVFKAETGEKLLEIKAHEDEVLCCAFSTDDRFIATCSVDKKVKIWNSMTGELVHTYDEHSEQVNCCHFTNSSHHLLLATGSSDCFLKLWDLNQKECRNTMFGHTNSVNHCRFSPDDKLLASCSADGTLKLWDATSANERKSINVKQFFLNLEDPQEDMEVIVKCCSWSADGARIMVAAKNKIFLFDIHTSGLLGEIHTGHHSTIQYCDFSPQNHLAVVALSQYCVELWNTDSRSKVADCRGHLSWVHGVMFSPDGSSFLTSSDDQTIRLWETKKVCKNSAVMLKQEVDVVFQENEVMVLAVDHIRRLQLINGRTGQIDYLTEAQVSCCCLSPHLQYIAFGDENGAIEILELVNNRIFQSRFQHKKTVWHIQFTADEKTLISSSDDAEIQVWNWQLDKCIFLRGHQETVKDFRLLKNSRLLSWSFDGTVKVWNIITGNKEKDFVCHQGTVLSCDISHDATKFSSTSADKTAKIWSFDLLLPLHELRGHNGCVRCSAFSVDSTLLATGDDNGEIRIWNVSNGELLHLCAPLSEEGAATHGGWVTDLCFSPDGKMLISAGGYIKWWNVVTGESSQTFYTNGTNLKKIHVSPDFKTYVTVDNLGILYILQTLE

[4] = target: T2, Voltage-gated N-type calcium channel alpha-1B subunit/Amyloid beta A4 precursor protein-binding family A member 1 (Homo sapiens, UniProt Q00975+Q02410); type: protein assay
T2 sequence (Q00975 whole entry): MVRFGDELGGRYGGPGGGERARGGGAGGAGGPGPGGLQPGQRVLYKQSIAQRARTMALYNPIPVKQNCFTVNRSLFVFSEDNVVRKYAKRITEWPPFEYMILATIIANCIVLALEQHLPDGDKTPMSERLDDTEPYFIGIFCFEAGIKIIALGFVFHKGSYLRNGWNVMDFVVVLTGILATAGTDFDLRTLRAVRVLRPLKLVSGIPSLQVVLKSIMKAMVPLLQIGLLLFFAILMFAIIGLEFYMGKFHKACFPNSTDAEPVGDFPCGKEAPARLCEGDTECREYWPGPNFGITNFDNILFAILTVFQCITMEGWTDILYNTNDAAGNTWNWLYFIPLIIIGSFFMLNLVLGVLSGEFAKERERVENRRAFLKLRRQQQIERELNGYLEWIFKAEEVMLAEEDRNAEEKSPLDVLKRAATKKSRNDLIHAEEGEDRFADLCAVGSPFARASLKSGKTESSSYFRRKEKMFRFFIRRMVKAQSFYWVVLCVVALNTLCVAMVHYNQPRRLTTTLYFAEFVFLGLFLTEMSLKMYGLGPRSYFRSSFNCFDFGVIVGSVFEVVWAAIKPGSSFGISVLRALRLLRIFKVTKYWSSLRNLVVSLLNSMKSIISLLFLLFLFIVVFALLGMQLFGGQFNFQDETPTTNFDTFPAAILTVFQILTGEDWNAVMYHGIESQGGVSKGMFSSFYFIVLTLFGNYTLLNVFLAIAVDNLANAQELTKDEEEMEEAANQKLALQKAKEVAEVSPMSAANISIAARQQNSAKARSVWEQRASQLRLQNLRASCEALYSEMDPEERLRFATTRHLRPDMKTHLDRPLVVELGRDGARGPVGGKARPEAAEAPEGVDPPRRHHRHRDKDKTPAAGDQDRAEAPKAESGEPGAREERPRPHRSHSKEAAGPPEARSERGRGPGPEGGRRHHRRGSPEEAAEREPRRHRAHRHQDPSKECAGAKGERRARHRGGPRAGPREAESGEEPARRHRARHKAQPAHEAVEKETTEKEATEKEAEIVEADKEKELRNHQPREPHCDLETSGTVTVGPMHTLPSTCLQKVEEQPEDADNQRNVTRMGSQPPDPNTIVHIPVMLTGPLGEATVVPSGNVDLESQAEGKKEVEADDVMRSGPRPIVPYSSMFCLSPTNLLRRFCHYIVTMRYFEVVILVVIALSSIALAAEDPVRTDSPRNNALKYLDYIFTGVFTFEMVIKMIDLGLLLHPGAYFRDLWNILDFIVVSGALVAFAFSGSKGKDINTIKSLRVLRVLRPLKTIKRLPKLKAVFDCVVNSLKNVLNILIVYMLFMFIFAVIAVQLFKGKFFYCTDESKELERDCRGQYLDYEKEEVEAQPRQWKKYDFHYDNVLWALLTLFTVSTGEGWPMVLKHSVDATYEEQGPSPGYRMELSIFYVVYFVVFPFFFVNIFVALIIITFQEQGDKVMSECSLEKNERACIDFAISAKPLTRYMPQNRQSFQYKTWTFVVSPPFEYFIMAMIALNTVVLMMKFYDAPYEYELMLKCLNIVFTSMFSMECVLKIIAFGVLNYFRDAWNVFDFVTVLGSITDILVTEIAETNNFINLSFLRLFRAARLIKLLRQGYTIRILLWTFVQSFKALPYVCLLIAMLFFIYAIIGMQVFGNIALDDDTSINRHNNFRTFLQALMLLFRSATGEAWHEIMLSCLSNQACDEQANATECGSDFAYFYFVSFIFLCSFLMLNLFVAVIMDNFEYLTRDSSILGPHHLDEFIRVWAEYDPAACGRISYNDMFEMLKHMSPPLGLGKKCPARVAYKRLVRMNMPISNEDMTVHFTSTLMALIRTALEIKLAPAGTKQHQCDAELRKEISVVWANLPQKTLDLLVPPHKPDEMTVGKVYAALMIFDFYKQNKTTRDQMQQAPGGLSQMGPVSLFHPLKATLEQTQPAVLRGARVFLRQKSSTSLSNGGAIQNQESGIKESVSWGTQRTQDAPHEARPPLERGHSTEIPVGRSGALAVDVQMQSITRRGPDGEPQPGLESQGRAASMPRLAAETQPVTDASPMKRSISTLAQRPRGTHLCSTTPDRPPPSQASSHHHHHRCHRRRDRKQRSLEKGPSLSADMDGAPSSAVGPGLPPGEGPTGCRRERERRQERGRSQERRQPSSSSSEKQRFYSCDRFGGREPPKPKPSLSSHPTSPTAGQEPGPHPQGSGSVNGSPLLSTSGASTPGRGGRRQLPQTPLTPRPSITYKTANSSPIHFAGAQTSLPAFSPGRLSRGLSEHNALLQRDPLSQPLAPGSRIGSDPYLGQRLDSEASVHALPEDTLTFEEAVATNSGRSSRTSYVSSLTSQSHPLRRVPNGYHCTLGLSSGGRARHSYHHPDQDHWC
T2 sequence (Q02410 whole entry): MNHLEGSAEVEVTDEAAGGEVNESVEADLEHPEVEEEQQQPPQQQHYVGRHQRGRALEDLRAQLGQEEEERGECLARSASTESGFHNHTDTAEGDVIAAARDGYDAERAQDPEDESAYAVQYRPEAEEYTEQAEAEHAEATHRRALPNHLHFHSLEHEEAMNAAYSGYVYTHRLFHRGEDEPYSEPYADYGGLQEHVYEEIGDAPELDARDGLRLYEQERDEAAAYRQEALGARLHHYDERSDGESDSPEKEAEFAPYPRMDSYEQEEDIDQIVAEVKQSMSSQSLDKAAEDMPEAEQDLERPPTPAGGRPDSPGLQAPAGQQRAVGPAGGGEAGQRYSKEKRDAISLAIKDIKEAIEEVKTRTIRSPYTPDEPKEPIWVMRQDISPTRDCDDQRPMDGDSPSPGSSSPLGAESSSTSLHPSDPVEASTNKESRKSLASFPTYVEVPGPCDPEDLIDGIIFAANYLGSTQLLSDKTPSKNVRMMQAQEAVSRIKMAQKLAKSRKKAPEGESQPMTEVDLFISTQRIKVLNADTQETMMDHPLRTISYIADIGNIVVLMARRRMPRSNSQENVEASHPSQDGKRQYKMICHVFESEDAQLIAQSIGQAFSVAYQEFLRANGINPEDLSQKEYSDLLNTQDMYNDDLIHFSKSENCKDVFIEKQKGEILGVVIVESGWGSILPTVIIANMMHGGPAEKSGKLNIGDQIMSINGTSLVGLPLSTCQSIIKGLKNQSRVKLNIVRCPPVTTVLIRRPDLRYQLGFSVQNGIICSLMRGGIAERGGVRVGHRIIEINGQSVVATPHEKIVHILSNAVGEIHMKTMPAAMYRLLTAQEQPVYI

[5] = target: T2, Voltage-gated N-type calcium channel alpha-1B subunit/Amyloid beta A4 precursor protein-binding family A member 1; type: protein assay; remark: listed apart in the source
[6] = target: DNA dC->dU-editing enzyme APOBEC-3A (Homo sapiens, UniProt P31941); test: APOBEC3A DNA deaminase inhibitors, dose response, biochemical (AID 504722); type: functional
Chain of DNA dC->dU-editing enzyme APOBEC-3A (P31941 whole entry, the tested form may be a part): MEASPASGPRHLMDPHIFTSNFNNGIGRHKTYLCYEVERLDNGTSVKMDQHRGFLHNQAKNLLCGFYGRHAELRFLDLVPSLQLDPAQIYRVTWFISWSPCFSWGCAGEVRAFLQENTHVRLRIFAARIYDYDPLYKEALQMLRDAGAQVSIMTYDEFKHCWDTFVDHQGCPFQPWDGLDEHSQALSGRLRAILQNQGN

[7] = target: T3, Carboxy-terminal domain RNA polymerase II polypeptide A small phosphatase 1 (Homo sapiens, UniProt Q9GZU7); test: inhibitors of CTDSP1, concentration-response testing, biochemical assay, absorbance-based, actives from ultra-high-throughput screening (AID 540297); type: functional
T3 sequence (Q9GZU7 whole entry): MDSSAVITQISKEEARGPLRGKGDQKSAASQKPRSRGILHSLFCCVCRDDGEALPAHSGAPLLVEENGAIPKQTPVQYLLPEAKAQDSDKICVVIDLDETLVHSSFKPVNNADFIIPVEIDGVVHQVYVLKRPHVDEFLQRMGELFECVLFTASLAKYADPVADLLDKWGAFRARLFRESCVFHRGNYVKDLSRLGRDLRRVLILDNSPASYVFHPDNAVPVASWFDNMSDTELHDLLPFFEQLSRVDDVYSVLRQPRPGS

[8] = target: DNA dC->dU-editing enzyme APOBEC-3G (Homo sapiens, UniProt Q9HC16); test: Dose Response confirmation of small molecule APOBEC3G DNA Deaminase Inhibitors via a fluorescence-based single-stranded DNA deaminase assay. [Related pubchem assays (depositor defined):AID493012, AID493028]; type: functional
Chain of DNA dC->dU-editing enzyme APOBEC-3G (Q9HC16 whole entry): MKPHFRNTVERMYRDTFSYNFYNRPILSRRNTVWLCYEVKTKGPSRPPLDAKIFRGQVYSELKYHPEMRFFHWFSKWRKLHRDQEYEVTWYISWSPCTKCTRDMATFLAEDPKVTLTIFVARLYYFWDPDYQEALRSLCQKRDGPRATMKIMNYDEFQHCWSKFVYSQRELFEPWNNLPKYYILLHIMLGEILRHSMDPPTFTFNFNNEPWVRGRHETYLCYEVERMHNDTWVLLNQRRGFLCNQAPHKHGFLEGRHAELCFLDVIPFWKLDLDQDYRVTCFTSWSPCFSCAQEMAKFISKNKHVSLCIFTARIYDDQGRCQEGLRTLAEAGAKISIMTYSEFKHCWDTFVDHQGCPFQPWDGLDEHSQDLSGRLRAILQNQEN

[9] = CFTR ΔF508 corrector activity in bronchial cells, dose response, human bronchial epithelial cells, plate reader, cherry-pick, two tests (AID 743267); type: functional, cell-based
[10] = target: T4, Tyrosyl-DNA phosphodiesterase 2 (Homo sapiens, UniProt O95551); test: human TDP2 enzyme inhibitors, dose response, biochemical, epi absorbance, IC50 (AID 743297)
T4 sequence (O95551 whole entry): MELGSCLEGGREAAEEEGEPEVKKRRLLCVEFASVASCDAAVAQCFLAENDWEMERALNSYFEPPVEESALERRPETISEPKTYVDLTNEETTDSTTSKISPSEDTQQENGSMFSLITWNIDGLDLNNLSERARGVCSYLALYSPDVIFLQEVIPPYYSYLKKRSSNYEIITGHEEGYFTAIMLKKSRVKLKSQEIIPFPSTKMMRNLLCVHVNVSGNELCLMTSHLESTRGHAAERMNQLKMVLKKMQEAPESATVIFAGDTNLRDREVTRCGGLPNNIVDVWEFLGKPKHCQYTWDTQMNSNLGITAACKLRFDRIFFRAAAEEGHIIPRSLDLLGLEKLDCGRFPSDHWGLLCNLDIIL

Genome polyprotein = Genome polyprotein (dengue virus type 2, UniProt P29990); test: Dengue-2 NS5 methyltransferase inhibitors, primary screen, biochemical, confirmation dose response (AID 588689); type: functional
Vero = Vero cell cytotoxicity, cytotoxicity control for flavivirus capping enzyme inhibitors (AID 588742); type: functional; settings: Chlorocebus sabaeus
Albumin = Albumin (Bos taurus, UniProt P02769); test: Counterscreen for inhibitors of T-cell receptor (TCR)-CD3 interaction: Fluorescence-based biochemical high throughput dose response assay to identify inhibitors of T-cell receptor (TCR)-CD3 interaction using a TAMRA-labeled BSA probe.; type: functional
[11] = target: Glucose-6-phosphate 1-dehydrogenase (Homo sapiens, UniProt P11413); test: human G6PD enzyme inhibitors, dose response, selectivity assay for P. falciparum G6PD inhibitor project, biochemical, fluorescence (AID 504792); type: functional
Chain of Glucose-6-phosphate 1-dehydrogenase (P11413 whole entry): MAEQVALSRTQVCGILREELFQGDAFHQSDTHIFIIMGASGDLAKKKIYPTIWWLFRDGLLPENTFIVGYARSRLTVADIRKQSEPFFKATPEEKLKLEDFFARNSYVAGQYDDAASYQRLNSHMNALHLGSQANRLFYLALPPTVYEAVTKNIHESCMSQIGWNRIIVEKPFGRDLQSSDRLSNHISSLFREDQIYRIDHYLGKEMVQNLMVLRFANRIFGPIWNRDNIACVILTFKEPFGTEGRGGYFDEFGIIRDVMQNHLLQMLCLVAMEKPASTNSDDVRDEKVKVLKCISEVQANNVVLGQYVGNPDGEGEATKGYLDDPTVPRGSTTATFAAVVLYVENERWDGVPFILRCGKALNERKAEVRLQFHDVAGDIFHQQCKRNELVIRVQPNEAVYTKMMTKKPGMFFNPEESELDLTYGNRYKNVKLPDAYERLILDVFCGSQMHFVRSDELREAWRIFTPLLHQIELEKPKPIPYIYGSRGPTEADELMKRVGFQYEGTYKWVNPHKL

Candida albicans [12] = test: growth inhibition of azole-resistant C. albicans, dose response, CaCi-8 strain, Alamar Blue, dry powder, set 2 (AID 488909); type: functional, organism-based
Candida albicans [13] = test: growth inhibition of resistant C. albicans, dose response, CaCi-8 strain, fluconazole, dry powder, set 4 (AID 488950); type: functional, organism-based
HEK293 [14] = test: SAR Analysis of small molecule inhibitors of B-cell specific antigen receptor-induced NF-kB activation in a HEK-293T cell line using a luminescence assay - Set 2. [Related pubchem assays (depositor defined):AID435022, AID435025, AID489021]; type: functional, cell-based; settings: Homo sapiens
HEK293 [15] = test: cytotoxicity in HEK293T NF-kB-Luc cells, SAR follow-up, cytotoxicity control for NF-kB activator project, cell-based, resazurin fluorescence (AID 493251); type: functional; settings: Homo sapiens
Jurkat = test: SAR Analysis of small molecule inhibitors of […] specific antigen receptor-induced NF-kB activation in a Jurkat cell line using a luminescence assay - Set 3. [Related pubchem assays (depositor defined):AID435022, AID435025, AID465]; type: functional, cell-based; settings: Homo sapiens

Q: With Cc1ccnc(SCc2cn3c(C)cc(C)nc3n2)n1 as the compound, how does the AC50 (Trypsin) read?
A: 20.2 µM (active)

Q: What about the AC50 (CAAX prenyl protease 2) of the same compound?
A: > 100 µM (inactive)

Q: For O=C1NC(c2cccs2)Nc2sc3c(c21)CCCC3 (stereo unspecified), which AC50 [1] is on record?
A: 129 µM (active)

Q: For C=C(C)C(=O)Nc1cccc(C2=NOC3(C2)C[C@@H](C(N)=O)N(C(=O)CCCCC)C3)c1 (stereo partly specified), which EC50 [2] is on record?
A: 0.11 µM (active)

Q: What about the EC50 [3] of the same compound?
A: 2.96 µM (active)

Q: What about the IC50 [4] of the same compound?
A: 10.2 µM (active)

Q: What about the IC50 [5] of the same compound?
A: > 50 µM (inactive)

Q: And the IC50 [6]?
A: > 100 µM (inactive)

Q: And the IC50 [7]?
A: 0.9 µM (active)

Q: What about the IC50 [8] of the same compound?
A: 2.82 µM (active)

Q: With O=C1C(=NCCc2cc(Br)c(O)c(Br)c2)C=C(O)c2cccnc21 as the compound, how does the AC50 [9] read?
A: 3.33 µM (active)

Q: What about the IC50 [10] of the same compound?
A: 5.04 µM (active)

Q: What about the IC50 (Genome polyprotein) of the same compound?
A: 12.2 µM (active)

Q: And the CC50 (Vero)?
A: 2.03 µM (active)

Q: And the IC50 (Albumin)?
A: > 94.2 µM (inactive)

Q: And the IC50 [11]?
A: 25.2 µM (inactive)

Q: With CCCC(=O)N1CCN(c2ccnc3cc(Cl)ccc23)CC1 as the compound, how does the AC50 (Candida albicans [12]) read?
A: 5.59 µM (active)

Q: What about the AC50 (Candida albicans [13]) of the same compound?
A: 16.9 µM (active)

Q: For CCOc1ccc(-c2nc(CSCC(=O)NC3CCCC3)c(C)o2)cc1, which IC50 (HEK293 [14]) is on record?
A: 26.4 µM (inactive)

Q: And the IC50 (HEK293 [15])?
A: 64.2 µM (inactive)

Q: And the IC50 (Jurkat)?
A: 37.6 µM (inactive)
